Measured values: patent publication US20210221822A1, “TRICYCLIC DERIVATIVES INHIBITOR, PREPARATION METHOD, AND APPLICATIONS THEREOF” (Jiangsu Hansoh Pharmaceutical Group Co., Ltd., priority 2018, published 2021)

Columns and labels:
[1] = system: PI3Kα mutant cancer cells MKN1 (E545K); assay: Cell Titer-Glo proliferation inhibition, MKN1; format: cell-based; conditions: Homo sapiens, MKN-1, 48 to 96 hours
Description: Experimental method: The proliferation inhibitory effect of the compounds of the examples on PI3Kα mutant cancer cell lines HCC1954, HGC-27 and MKN1 was determined by Cell Titer-Glo method. The cell lines were cultured in RPMI 1640 medium (Gibco #22400089) containing 10% FBS (Gibco #10091148) and 1% P/S (Hyclone #SV30010) at 37° C. and 5% CO2. Before the experiment, the cells were collected and counted, and then the cell density was adjusted. The cells were inoculated in a white 96-well plate (Corning #3610) at a density of 1000 to 10000 cells/well, and incubated in an incubator at 37° C., 5% CO2 overnight. The compound solution of different concentrations was added, and corresponding vehicle control was set at the same time. The cell plate was further incubated in an incubator at 37° C., 5% CO2 for 48 to 96 hours. The cell plate and its content were equilibrated to room temperature. 20 to 100 μL of Cell Titer-Glo solution (Promega #G7573) was added to each well, and the plate was shaked well and incubated at room temperature in the dark for 5 to 30 minutes. The chemiluminescence value was measured by the BioTek SynergyH1 microplate reader.
The percentage inhibition data of the well treated by the compounds of the examples was calculated through the vehicle control well on the plate {% inhibition rate=100−(test compound value/vehicle control value)×100}. The IC50 value was calculated by fitting the data of different concentrations and corresponding percentage inhibition rates to a four-parameter nonlinear logic formula with GraphPad prism.

HCC1954 cells = assay: In vivo efficacy test, HCC1954 tumor-bearing nude mice; design: species or system BALB/c nude mice; conditions: HCC1954 xenograft, oral 10 mg/kg once/day, 21 days (Example 51: 19 days)
Description: a. HCC1954 cells were taken from the cell bank, and resuscitated in RPMI-1640 medium (RPMI-1640+10% FBS+1% SP). The resuscitated cells were placed in a cell culture flask (the cell type, date, operator's name and the like were marked on the wall of the flask), and cultured in a CO2 incubator (the temperature of the incubator was 37° C., and the CO2 concentration was 5%).
c. The cultured cells were collected and counted with the automatic cell counter. The cells were resuspended with PBS and matrigel according to the counting results to prepare a cell suspension (density: 5×10^7/mL), which was placed in an ice box for later use.
d. The test nude mice were subjected to inoculation successively (0.1 mL of cell suspension was inoculated to each mouse).
a. According to the tumor growth, the tumor was measured on 14 to 18 days after the inoculation, and the tumor size was calculated.
Tumor volume calculation: tumor volume (mm^3)=length (mm)×width (mm)×width (mm)/2
c. According to the grouping results, the test compounds were administered (administration mode: oral administration; administration dose: 10 mg/kg;
administration volume: 10 mL/kg; administration frequency: once/day; administration cycle: 21 days; vehicle: 0.5% CMC/1% Tween 80).
d. Tumor volume and body weight were measured twice a week after the administration of test compounds began.
f. […]

IC50 [1]: 113 nM
Compound: C[C@H](Nc1ccc2c(c1)OCCn1cc(N3C(=O)COC[C@H]3C(F)F)nc1-2)C(N)=O [Example 68, (S)-2-((2-((S)-3-(difluoromethyl)-5-oxomorpholino)-5,6-dihydrobenzo[f]imidazo[1,2-d][1,4]oxazepin-9-yl)amino)propanamide]
Tumor growth inhibition rate (HCC1954 cells): 78%
